Data as given in patent publication US6762185B1, “Compounds useful for treatment of cancer, compositions containing the same, and methods of their use” (Choongwae Pharma Corporation, priority 2002, dated 2004).

Legend:
[1] = test system: TCF4/β-catenin transcriptional pathway; test: TCF4/β-catenin reporter gene assay (pTOPFlash luciferase) in SW480 cells; type: cell-based; details: 24 hours treatment, firefly normalized to renilla
Protocol: The compound having general formula (I) wherein R1 is 2-naphthyl and R2 is phenyl is used for this experiment (it is referred to as ‘TCF4 compound’ hereinafter). Each transfection was performed in duplicate and repeated at least three times. SW480 cells were transfected transiently with 4.0 μg firefly luciferase reporter plasmid (pTOPFlash) and 0.8 μg renilla luciferase reporter plasmid (pRL-null). Firefly luciferase activity was normalized to renilla luciferase activity.
SW480 cells were maintained in DMEM with 10% fetal bovine serum supplemented with non-essential amino acid and antibiotics. Transient transfections into SW480 cells were carried out by Superfect (Qiagen,301307). For TCF4/β-catenin reporter gene assay, 4 μg of pTOPFlash and 0.8 μg of pRL-null were cotransfected. After 24 hours of transfection, SW480 cells were treated with TCF4 compound at varying concentrations. Firefly luciferase and renilla luciferase activities were measured 24 hours after said TCF4 compound treatment, and the firefly luciferase activity was normalized to the renilla luciferase activity (FIG. 1).

[2] = test system: caspase-3; test: Caspase-3 activation in SW480 cells (Cbz-DEVD-R110 substrate); type: cell-based; details: SW480 cells treated 24 hours, dose dependent
Protocol: FIG. 6. TCF4 compound induces caspase-3 activation in a dose-dependent manner. SW480 cells were treated with TCF4 compound for 24 hours. Whole cell protein extracts were prepared and 100 μg aliquots of protein extracts were incubated with Cbz-DEVD-R110 substrate for 2 hours at 37° C. Relative fluorescence unit (RFU) was obtained by subtracting the unit values of the blank control from the experimental measured values. SW480 cells were treated with TCF4 compound for 24 hours, collected and washed with PBS, and lysed in 100 μl ice cold hypotonic lysis buffer which is commercially available (Promega). 100 μg of the cell extracts were incubated in reaction buffer containing Cbz-DEVD-R110 (caspase-3 substrate: Promega) at 37° C. for 2 hours (FIG. 6). It is clear the FIG. 6 that caspase-3 activity was stimulated by the presence of the TCF4 compound, in a dose dependent manner.

[3] = test system: SW480 cells; test: Combination with 5-FU tested against SW480 cell lines; type: cell-based
Protocol: It has been known from previous art that 5-FU [Fluorouracil; 5-fluoro-2,4(1H, 3H)-pyrimidinedione] can induce apoptosis in cultured oral cancer cells (D. Tong et al., Oral Oncology 36, 2000 236-241). Further, it is also known that colon cancer has a sensitivity to 5-FU (D. Arango et al., Cancer Research 61, 2001 4910-4915). In the present invention, therefore, the combination of 5-FU having established anti-cancer activity and the compounds of formula (I) of the present invention is prepared and tested against SW480 cell lines. […] Therefore, it is yet another aspect of the present invention to provide a method of treating cancer, which comprises administering to a subject a safe and effective amounts of the compound having formula (I) of claim 1 together with other anti-cancer agent such as 5-Fu.

[4] = target: T1, CBP (Homo sapiens, UniProt Q92793); test: Binding of 14C-TCF4 compound to nuclear extracts of SW480 transfected with CBP or β-catenin; details: 14C-labelled compound, nuclear lysate of transfected SW480, 4° C., 18 hours
T1 construct: expressed in transfected cells; host or cells: SW480
Protocol: FIG. 3. […] SW480 cells were transiently transfected with β-catenin or CBP expression plasmid. 48 hours after transfection, nuclear protein extracts were collected. 14C-Tcf4 was incubated with nuclear lysate.
Nuclear protein extracts from SW480 transfected with CBP expression vector or wild type β-catenin expression vector were collected using NE-PER Nuclear and Cytoplasmic Extraction Reagents (Pierce) and incubated with ^14C-TCF4 compound at 4° C. for 18 hours. Each samples were washed with Sephadex G-25 columns equilibrated with 5 mL of PBB (20 mM HEPES, pH 7.9, 60 mM NaCl, 6 mM MgCl2, 0.5 mM EDTA, 0.1% NP-40, 20% glycerol, 5 mM 2-ME, 1 mM PMSF) and protein samples eluted by centrifugation were transferred to a scintillation vial containing 2 mL of scintillation fluid. Radio activities were counted using scintillation counter (Beckman).

[5] = test system: CBP-mediated transcriptional activation; test: CBP-mediated transcriptional activation, pTOPFlash with CBP and/or β-catenin cotransfection in SW480 cells; type: cell-based; details: SW480 cells cotransfected with pTOPFlash
Protocol: FIG. 2. […] SW480 cells were cotransfected with 1.1 μg of the pTOPFlash reporter, and 0.8 μg […], in the presence or absence of TCF4 compound and CBP and/or β-catenin, which are present in various concentrations(1.1 to 3.3 μg), is shown to reverse the inhibiting action of TCF4 compound on CBP-mediated transcriptional activation.
In order to determine the inhibitory effect of TCF4 compound on CBP-mediated transcriptional activation, reporter plasmid pTOPFlash (1.1 μg), CBP expression vector (1.1 to 3.3 μg), wild type beta-catenin expression vector (1.1 to 3.3 μg) and pRL-null (0.8 μg) were cotransfected into SW480. Total amount of DNA was adjusted to 6.3 μg. After 24 hours incubation, TCF4 compound was added and cells were washed and luciferase activity was measured. Firefly luciferase activity was normalized to renilla luciferase activity (FIG. 2).

[6] = test system: SW480 cells; test: Soft agar cell growth and colony formation assay; type: cell-based; details: SW480 cells in soft agar, 8 days
Protocol: FIG. 7. Cell growth and colony formation assays. SW480 cells were treated with TCF4 compound. The resulting cells are placed in a soft agar plate and incubated at 37° C. in CO2 incubator for 8 days. Number of colonies were counted under microscope. Agar plates were prepared to contain 10% FBS, 2 mM L-glutamine, 0.1 mM non-essential amino acid, 1×pen/strep and 1.6% agarose for bottom layer and DMEM containing 10% FBS, 2 mM L-glutamine, 0.1 mM non-essential amino acid, 1×pen/strep for upper layer. TCF4 compound solution and upper layer solution containing agarose were mixed and SW480 cells were added and solidified. Plates were incubated 37° C. at CO2 incubator for 8 days after solidification at room temperature for 30 min and colonies were counted under microscope (FIG. 7).

[7] = test system: survivin; test: Survivin expression in SW480 cells (RT-PCR and Western blot); type: cell-based, human
Protocol: FIGS. 5A and 5B. Inhibition of survivin expression by TCF4 compound in […]. FIG. 5A. Surviving mRNA (363 bp) level was assessed by RT-PCR in SW480 cell 24 hours after incubation 25 μM TCF4 compound. β-actin mRNA (564 bp) level is shown as an internal control. FIG. 5B. Survivin protein (MW 16,500) level was assessed by Western blots in SW480 using anti-survivin monoclonal antibody after TCF4 incubation with compound for 48 hrs.
Total RNA was isolated from SW480 cells treated with the TCF4 compound using Rneasy midi kit (Qiagen, Valencia, Calif., 75142). One microgram of RNA was used as a template for RT-PCR. The expression of survivin was evaluated with RT-PCR and Western blot. The primer used to detect fragments of the survivin gene was designed from published human sequences (Cancer Res., 2001, 62, 8664-8667). The sequences used were 5′-[…]-3′ and 5′-[…]-3′, which can give an amplified product of 363 bp. The RT-PCR reaction was processed by Access RT-PCR system (Promega A1260). (FIG. 5) Survivin 6E4 Monoclonal antibody (Cell signaling Technology, 2802) was used for Western blot of TCF4 compound treated SW480 cells. (FIG. 5B).

[8] = test system: SW480 cells; test: Bioassay for the measurement of IC50 against SW480 cells (TOPFlash/pRL-null luciferase); type: cell-based; details: Homo sapiens, 24 hrs treatment, firefly and renilla luciferase activities, read-out: IC50 against SW480 cell growth
Protocol: FIG. 8. Measurement of IC50 of TCF4 compound for SW480 cells. Cell growth inhibition on SW480 cells is measured at various concentrations of TCF4 compound in order to obtain the IC50 value. Specifically, the degree of inhibition in firefly and renilla luciferase activities by TCF4 compound was determined. […] Detailed procedures are the same as disclosed in Example 8.
SW480 cells were transfected with the usage of Superfect™ transfect reagent (Qiagen, 301307). Cells were trypsinized briefly 1 day before transfection and plated on 6 well plate (5×10^5 cells/well) so that they were 50-80% confluent on the day of transfection. Four microgram (TOPFlash) and one microgram (pRL-null) of DNAs were diluted in 150 μl of serum-free medium, and 30 μl of Superfect™ transfect reagent was added. The DNA-Superfect mixture was incubated at room temperature for 15 min, after that 1 ml of 10% FBS DMEM was added to this complex for an additional 3 hr of incubation. While complexes were forming, cells were washed with PBS twice without antibiotics. The DNA-Superfect™ transfect reagent complexes were applied to the cells before incubating at 37° C. at 5% CO2 for 3 h. After incubation, recovery medium with 10% FBS was added to bring the final volume to 1.18 ml. After 3 hr incubation, the cells were harvested and reseeded to 96 well plate (3×10^4 cells/well). […]

T1 sequence (Q92793 whole entry): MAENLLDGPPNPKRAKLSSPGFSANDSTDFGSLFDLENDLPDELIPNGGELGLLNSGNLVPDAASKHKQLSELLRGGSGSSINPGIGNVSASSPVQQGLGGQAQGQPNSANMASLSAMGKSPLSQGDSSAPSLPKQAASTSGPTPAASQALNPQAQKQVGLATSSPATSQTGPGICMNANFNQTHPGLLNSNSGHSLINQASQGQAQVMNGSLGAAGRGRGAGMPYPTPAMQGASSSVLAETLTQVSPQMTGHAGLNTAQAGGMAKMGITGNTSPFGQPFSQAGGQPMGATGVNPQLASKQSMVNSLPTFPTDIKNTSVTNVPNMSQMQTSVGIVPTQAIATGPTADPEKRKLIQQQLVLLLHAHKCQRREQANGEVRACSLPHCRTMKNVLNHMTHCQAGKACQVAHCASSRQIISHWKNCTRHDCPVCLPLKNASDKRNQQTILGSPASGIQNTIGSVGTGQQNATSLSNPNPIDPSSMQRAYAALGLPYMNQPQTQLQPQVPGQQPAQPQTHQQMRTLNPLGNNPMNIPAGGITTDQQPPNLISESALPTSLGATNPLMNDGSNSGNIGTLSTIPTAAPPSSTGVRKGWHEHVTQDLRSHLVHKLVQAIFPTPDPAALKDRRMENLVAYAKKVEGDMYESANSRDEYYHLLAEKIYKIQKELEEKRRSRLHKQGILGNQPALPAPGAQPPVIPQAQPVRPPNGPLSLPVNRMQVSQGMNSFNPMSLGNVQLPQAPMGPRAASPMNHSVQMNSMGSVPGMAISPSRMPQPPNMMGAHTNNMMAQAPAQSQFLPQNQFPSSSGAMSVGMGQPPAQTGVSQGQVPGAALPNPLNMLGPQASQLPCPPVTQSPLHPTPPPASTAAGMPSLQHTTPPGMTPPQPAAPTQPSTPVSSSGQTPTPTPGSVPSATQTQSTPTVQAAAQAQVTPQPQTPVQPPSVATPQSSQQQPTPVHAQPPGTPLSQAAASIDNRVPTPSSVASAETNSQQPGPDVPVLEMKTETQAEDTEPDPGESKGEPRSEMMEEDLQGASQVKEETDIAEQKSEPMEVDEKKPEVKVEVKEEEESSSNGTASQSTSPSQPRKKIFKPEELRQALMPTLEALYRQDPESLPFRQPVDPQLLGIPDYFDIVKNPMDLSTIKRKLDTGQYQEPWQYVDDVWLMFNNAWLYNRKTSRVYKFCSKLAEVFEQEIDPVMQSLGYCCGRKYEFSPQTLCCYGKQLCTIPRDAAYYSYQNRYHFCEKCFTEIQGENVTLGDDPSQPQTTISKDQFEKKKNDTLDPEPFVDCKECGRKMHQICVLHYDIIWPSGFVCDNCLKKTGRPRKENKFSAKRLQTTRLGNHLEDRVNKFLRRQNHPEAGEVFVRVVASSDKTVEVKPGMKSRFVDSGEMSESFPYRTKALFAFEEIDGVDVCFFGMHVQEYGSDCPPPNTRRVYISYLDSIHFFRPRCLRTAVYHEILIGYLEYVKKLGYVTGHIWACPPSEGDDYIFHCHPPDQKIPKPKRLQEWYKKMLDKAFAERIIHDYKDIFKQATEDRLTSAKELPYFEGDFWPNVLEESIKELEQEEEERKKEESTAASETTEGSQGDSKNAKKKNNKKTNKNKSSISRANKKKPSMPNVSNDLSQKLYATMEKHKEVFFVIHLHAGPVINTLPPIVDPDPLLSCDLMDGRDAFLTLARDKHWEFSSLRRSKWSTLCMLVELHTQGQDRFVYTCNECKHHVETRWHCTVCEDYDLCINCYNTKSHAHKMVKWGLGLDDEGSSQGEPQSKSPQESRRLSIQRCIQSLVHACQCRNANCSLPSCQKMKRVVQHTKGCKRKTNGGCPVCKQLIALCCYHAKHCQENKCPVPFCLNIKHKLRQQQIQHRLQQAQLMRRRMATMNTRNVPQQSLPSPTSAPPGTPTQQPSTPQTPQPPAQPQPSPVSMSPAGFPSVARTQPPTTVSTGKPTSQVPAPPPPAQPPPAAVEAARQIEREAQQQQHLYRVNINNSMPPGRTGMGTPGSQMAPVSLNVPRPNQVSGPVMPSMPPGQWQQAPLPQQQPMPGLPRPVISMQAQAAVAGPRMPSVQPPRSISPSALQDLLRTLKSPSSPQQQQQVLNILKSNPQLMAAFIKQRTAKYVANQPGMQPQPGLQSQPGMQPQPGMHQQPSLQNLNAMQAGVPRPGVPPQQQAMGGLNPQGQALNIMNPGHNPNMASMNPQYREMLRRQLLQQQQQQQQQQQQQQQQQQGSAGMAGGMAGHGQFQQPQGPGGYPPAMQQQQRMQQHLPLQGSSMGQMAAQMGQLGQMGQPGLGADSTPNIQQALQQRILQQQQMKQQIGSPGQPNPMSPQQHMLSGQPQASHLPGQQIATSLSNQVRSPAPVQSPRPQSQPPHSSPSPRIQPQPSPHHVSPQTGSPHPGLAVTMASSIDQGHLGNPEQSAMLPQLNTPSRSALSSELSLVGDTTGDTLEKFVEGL

**Q.** Which results are given for `O=C1[C@H](Cc2ccc(O)cc2)N2C(=O)CCN(C(=O)NCc3ccccc3)[C@H]2CN1Cc1cccc2ccccc12` [TCF4 compound, 6-(4-Hydroxy-benzyl)-8-naphthalen-1-ylmethyl-4-oxo-hexahydro-pyrazino[1,2-α]pyrimidine-1-carboxylic Acid Benzylamide]?
**A.** transcription of the TCF4 responsive reporter gene luciferase [1]: inhibits the transcription of the TCF4 responsive reporter gene luciferase in a dose-dependent manner; caspase-3 activity [2]: stimulated; inhibition of cancer cell growth in combination with 5-FU [3]: remarkable effect for inhibiting cancer cell growth; binding to CBP [4]: Specific binding; CBP-mediated transcriptional activation [5]: inhibits CBP-mediated transcriptional activation; cell growth and colony formation [6]: correlation between the dose of TCF4 compound and the inhibition of cell growth; survivin mRNA expression level ([7]; RT-PCR, 25 μM, 24 hours): Inhibits; survivin protein expression level ([7]; Western blot, 48 hrs): Inhibits; IC50 [8]: ~8.07 µM
